# Assay results published in patent US20070015733A1, “Aryl Phosphate Derivatives of d4T having Activity Against Resistant HIV Strains” (Parker Hughes Institute, priority 1998, published 2007).
# Read-outs that look alike come from different tables or passages of the source.
# What was measured:
# [1] = Pharmacokinetics after intravenous or oral administration; format: in vivo, mice
# [2] = test system: HIV-2 (Strain: CBL-20); test: Inhibition of HIV-2 replication in PBMNC (RT activity); format: cell-based; details: Human immunodeficiency virus 2, read-out: HIV-2 IC50 [RT]
# Description: (P-AZT) and with AZT. The incubation and analysis methods used were as described above for Example 3.
# Cellular Assays of Anti-HIV Activity and Cytotoxicity. […] Percent viral inhibition was calculated by comparing the RT activity values from the test substance-treated infected cells with RT values from untreated infected cells (i.e., virus controls).
# [3] = test system: zidovudine-resistant primary clinical HIV-1 isolates; test: p24 drug susceptibility assay, NRTI-/zidovudine-resistant primary clinical HIV-1 isolates in PBMC; format: cell-based; details: Human immunodeficiency virus 1, PBMC
# Description: Viruses. […] The HIV-1 strains HTLVIIIB (wildtype RT, NRTI-sensitive, NNRTI-sensitive), A17 (Y181 C mutant, NNRTI-resistant), A17-variant (Y181C+K103N mutant, NNRTI-resistant), and RT-MDR (M41 L, V106N, T215Y; NRTI-resistant, NNRTI-resistant) were also obtained from the AIDS Research and Reference Reagent Program, NIAID.
# Antiviral susceptibility assays. Phenotypic drug susceptibility studies of HIV-1 isolates and strains were performed by measuring the production of the p24 gag protein in peripheral blood mononuclear cells (PBMC) from seronegative healthy volunteers in the presence of increasing concentrations of the anti-HIV agent using the quantitative Coulter HIV-1 p24 antigen ezyme immunoassay (EIA) and HIV-1 p24 Antigen Kinetic Standard (Beckman Coulter), as previously described (Uckun, 1998, Antimicrobial Agents and Chemotherapy 37(4): 835-38). Informed consent was obtained from the blood donors according to DHHS guidelines using consent forms approved by the Institutional Review Board. In brief, PBMC were cultured for 72 h in RPMI 1640 medium (Gibco) supplemented with 20% (vol/vol) heat-inactivated fetal bovine serum, 5% human interleukin-2 (Zeptometrix), 2 mM L-glutamine, 25 mM HEPES, 2 g/L NaHCO3, 100 U/ml penicillin/streptomycin (Gibco), 50 μg/ml gentamicin (Gibco), and 5 μg/ml phytohemagglutinin-P (PHA-P) (Sigma) for 24-72 hours prior to exposure to HIV at a multiplicity of infection of 0.001-0.1 during a 1-h adsorbtion period at 37±1° C. in a humidified 5-7% CO2 atmosphere. Subsequently, cells were cultured in 96-well microtiter plates (100 μl/well; 2×10^6 cells/ml, triplicate wells) in the presence of the anti-HIV agents at 6-7 different concentrations ranging from 0.0001 μM to 100 μM, and 25 μL aliquots of culture supernatants were removed from the wells on day 6 after infection for p24 EIA, as previously described (Uckun, 1998, Antimicrobial Agents and Chemotherapy, 37(4):835-38). Controls included uninfected and untreated cells (background control) and infected but untreated (virus control) cells. The p24 EIA utilizes a murine monoclonal antibody to HIV core protein used to coat microwell strips to which the antigen present in the test culture supernatant samples binds. Percent inhibition of viral replication was calculated by comparing the p24 values from the test substance-treated infected cells with p24 values from untreated infected cells (i.e., virus controls). The IC50 values were determined using the Statview statistics program (SAS Institute, Inc.). In parallel, the effects of various treatments on cell viability were also examined as previously described (Uckun, 1998, Antimicrobial Agents and Chemotherapy, 42:383-388). In brief, noninfected PBMC were treated with each compound for 5 days under identical experimental conditions. A microculture tetrazolium assay (MTA) was performed to quantitate cellular proliferation (Uckun, 1998, Antimicrobial Agents and Chemotherapy, 42:383-388).
# Phenotypic drug susceptibility studies of HIV-1 isolates and strains were performed by measuring the production of the p24 gag protein in peripheral blood mononuclear cells (PBMC) from seronegative healthy volunteers in the presence of increasing concentrations of the anti-HIV agent using the quantitative Coulter HIV-1 p24 antigen enzyme immunoassay (EIA) and HIV-1 p24 Antigen Kinetic Standard (Beckman Coulter), as previously described. StatView was used in the calculation of the IC50 values from each set of triplicate wells using the linearized form of an exponential equation (lnY=lnb0+b1X; where Y=% inhibition, X=drug concentration). The inhibition constants were log10 transformed to homogenize the variances within each group. […] P-values below 0.05 were deemed significant (JMP Software, SAS).
# [4] = test system: NRTI-resistant recombinant HIV-1 isolates; test: p24 assay, multi-NRTI-resistant recombinant HIV-1 clones; format: cell-based
smiles,measurement,setting,value
"COC(=O)C(C)NP(=O)(OC[C@@H]1C=C[C@H](n2cc(C)c(=O)[nH]c2=O)O1)Oc1ccc(Br)cc1 (stereo partly shown) [Compound 1c, d4T-5′-[p-bromo-phenylmethoxyalaninyl phosphate]]",parent compound in blood,[1]; after oral administration,No parent d4T-5′-[p-bromophenyl methoxyalaninyl phosphate] was detectable
same,elimination half-life (t1/2) of the administered substance,[1]; intravenous administration,3.5 min
same,IC50,[2],400 nM
same,IC50,"[3]; isolate 92BR019 (D67N, L214F, T215D, K219Q), PBMC",2 nM
same,IC50,"[3]; isolate BR/92/019, PBMC, p24",2 nM
same,IC50,"[3]; isolate C140 (M41L, M184V, T215Y), PBMC",2.5 nM
same,IC50,"[3]; isolate C140, PBMC, p24",2.5 nM
same,IC50,"[3]; isolate C467-4 (K20R, D67N, K70R, Y188L, T215F, K219Q), PBMC",42 nM
same,IC50,"[3]; isolate C467-4, PBMC, p24",42 nM
same,IC50,"[3]; isolate G190-6, PBMC, p24",2.8 nM
same,IC50,"[3]; isolate G691-2 (mutations N.D.), PBMC",5 nM
same,IC50,"[3]; isolate G704-2 (M41L, D67N, K70R, L210W, T215Y), PBMC",3.2 nM
same,IC50,"[3]; isolate G704-2, PBMC, p24",3.2 nM
same,IC50,"[3]; isolate G780-1 (M41L, D67N, K70R, T215F, K219Q), PBMC",35 nM
same,IC50,"[3]; isolate G780-1, PBMC, p24",35 nM
same,IC50,"[3]; isolate G890-1 (K20R, M41L, D67N, T69N, K70R, L210W, T215Y), PBMC",6 nM
same,IC50,"[3]; isolate G890-1, PBMC, p24",6 nM
same,IC50,"[3]; isolate G910-6 (M41L, D67N, K70R, T215Y, K219Q), PBMC",2.8 nM
same,IC50,"[3]; isolate P798-1 (M41L, T215Y), PBMC",7.5 nM
same,IC50,"[3]; isolate P798-1, PBMC, p24",7.5 nM
same,IC50,"[3]; isolate Q252-2 (M41L, L210W, T215Y), PBMC",1.9 nM
same,IC50,"[3]; isolate Q252-2, PBMC, p24",1.9 nM
same,IC50,"[3]; isolate R416-10 (M41L, T215Y), PBMC",0.2 nM
same,IC50,"[3]; isolate R416-10, PBMC, p24",0.2 nM
same,IC50,"[3]; isolate S159-2 (M41L, K103N, T215Y), PBMC",0.78 nM
same,IC50,"[3]; isolate S159-2, PBMC, p24",0.8 nM
same,IC50,"[3]; isolate S762-4 (M41L, T215Y), PBMC",8 nM
same,IC50,"[3]; isolate S762-4, PBMC, p24",8 nM
same,IC50,"[3]; isolate T156-3 (M41L, E44D, D67N, T69D, L210W, T215Y), PBMC",3.3 nM
same,IC50,"[3]; isolate T156-3, PBMC, p24",3.3 nM
same,IC50,"[3]; isolate X165-8 (D67N, T69N, K70R, K103N, Y181C, T215F, K219E), PBMC",13 nM
same,IC50,"[3]; isolate X165-8, PBMC, p24",13 nM
same,IC50,"[3]; isolate X165-9 (K20R, D67N, K103N, T215Y), PBMC",2 nM
same,IC50,"[3]; isolate X165-9, PBMC, p24",2 nM
same,IC50,"[3]; isolate X267-1 (L74V), PBMC, p24",0.2 nM
same,IC50,"[3]; isolate X267-1 (M41L, L74V, L210W, T215Y), PBMC",0.15 nM
same,IC50,"[3]; isolate X267-2 (M41L, T215Y), PBMC",0.18 nM
same,IC50,"[3]; isolate X267-2, PBMC, p24",0.2 nM
same,IC50,"[3]; isolate X267-5 (M41L, F116S, T215Y), PBMC",30 nM
same,IC50,"[3]; isolate X267-5, PBMC, p24",30 nM
same,IC50,"[3]; isolate Y270-7 (M41W, Y188L, T215N), PBMC",9 nM
same,IC50,"[3]; isolate Y270-7, PBMC, p24",9 nM
same,IC50,"[3]; primary isolate C467-4 (Y188L), Table 14",42 nM
same,IC50,"[3]; primary isolate S159-2 (K103N), Table 14",< 0.1 nM
same,IC50,"[3]; primary isolate X165-8 (K103N, Y181C), Table 14",13 nM
same,IC50,"[3]; primary isolate X165-9 (K103N), Table 14",2 nM
same,IC50,"[3]; primary isolate Y270-7 (Y188L), Table 14",9 nM
same,IC50,"[3]; read-out: IC50 (nM), Mean ± SE, All (n = 25) NRTI-resistant HIV-1 isolates, p24",13.4 ± 3.2 nM
same,IC50,"[3]; read-out: IC50 (nM), Mean ± SE, Group A (n = 19) NRTI-resistant clinical isolates",8.9 ± 2.9 nM
same,IC50,"[3]; read-out: IC50 (nM), median, All (n = 25)",6 nM
same,IC50,"[3]; read-out: IC50 (nM), median, Group A (n = 19)",3.2 nM
same,IC50,"[3]; read-out: IC50 (nM), range, All (n = 25)",0.2 to 57.9 nM
same,IC50,"[3]; read-out: IC50 (nM), range, Group A (n = 19)",0.2 to 42 nM
same,IC50,"[3]; read-out: IC50, μM, Mean ± SE, mean over 20 zidovudine-resistant primary clinical isolates",8.7 ± 2.7 nM
same,IC50,"[3]; read-out: IC50, μM, Mean ± SE, mean over the NNRTI-resistant primary isolates of Table 14",11.2 ± 6.5 nM
same,IC50,"[3]; read-out: IC50 range, range over 20 zidovudine-resistant primary clinical isolates",1 to 42 nM
same,IC50,"[3]; read-out: average IC50 value, mean over 20 zidovudine-resistant primary clinical isolates",8.7 ± 2.8 nM
same,IC50,"[3]; read-out: average IC50 value, mean over primary clinical isolates with NNRTI binding pocket mutations",11.2 ± 6.5 nM
same,IC50,"[3]; read-out: mean IC50 value, NRTI-resistant isolates with 5 thymidine analog mutations (Group 1 in Table 19)",10.7 ± 5.1 nM
same,IC50,"[3]; read-out: mean IC50 value, isolates with M184V plus multiple thymidine analog mutations (Group 2 in Table 19)",17.2 ± 13 nM
same,IC50,"[4]; Human immunodeficiency virus 1, read-out: IC50 (nM), Mean ± SE, Group B (n = 6) recombinant clones",27.6 ± 7.9 nM
same,IC50,"[4]; Human immunodeficiency virus 1, read-out: IC50 (nM), median, Group B (n = 6)",22.5 nM
same,IC50,"[4]; Human immunodeficiency virus 1, read-out: IC50 (nM), p24, recombinant clone 1617-1 (151 complex)",19.9 nM
same,IC50,"[4]; Human immunodeficiency virus 1, read-out: IC50 (nM), p24, recombinant clone 4755-5",6 nM
same,IC50,"[4]; Human immunodeficiency virus 1, read-out: IC50 (nM), p24, recombinant clone 7295-1",43 nM
same,IC50,"[4]; Human immunodeficiency virus 1, read-out: IC50 (nM), p24, recombinant clone 7324-1",13.7 nM
same,IC50,"[4]; Human immunodeficiency virus 1, read-out: IC50 (nM), p24, recombinant clone 52252-1 in Table 18, 56252-1 in Tables 19 and 20 (K65R, 151 complex)",25 nM
same,IC50,"[4]; Human immunodeficiency virus 1, read-out: IC50 (nM), p24, recombinant clone printed 52534-1 in Table 18, 52534-2 in Tables 19 and 20 (69 insertion complex)",57.9 nM
same,IC50,"[4]; Human immunodeficiency virus 1, read-out: IC50 (nM), range, Group B (n = 6)",6 to 57.9 nM
same,IC50,"[4]; Human immunodeficiency virus 1, read-out: mean IC50 value, recombinant clones with 151 complex or 69 insertion complex (Group 3+Group 4)",34.3 ± 11.9 nM
